ChEMBL document CHEMBL3877282, “Synthesis and structure-activity studies of side chain analogues of the anti-tubercular agent, Q203” (Eur J Med Chem, 2017)
Converted amounts (≈) assume the structure as drawn.

Assays:
[1] = test system: Mycobacterium tuberculosis; assay: Antimycobacterial activity against GFP-fused Mycobacterium tuberculosis H37Rv in liquid broth culture medium; type: functional
[2] = test system: Mycobacterium tuberculosis; assay: Antimycobacterial activity against GFP-fused Mycobacterium tuberculosis H37Rv infected in macrophages; type: functional
[3] = Clearance in mouse at 2 mg/kg, iv; type: ADME, organism-based; settings: in vivo
[4] = Half life in mouse at 2 mg/kg, iv; type: ADME, organism-based; settings: in vivo
[5] = Oral bioavailability in mouse at 10 mg/kg; type: ADME, organism-based; settings: in vivo
[6] = Cmax in mouse at 10 mg/kg, po; type: ADME, organism-based; design: dose 10 mg/kg, route oral; settings: in vivo
[7] = AUC (0 to infinity) in mouse at 10 mg/kg, po; type: ADME, organism-based; design: dose 10 mg/kg, route oral, time infinity; settings: in vivo
[8] = Half life in mouse at 10 mg/kg, po; type: ADME, organism-based; settings: in vivo
[9] = Tmax in mouse at 10 mg/kg, po; type: ADME, organism-based; settings: in vivo
[10] = Volume of distribution at steady state in mouse at 2 mg/kg, iv; type: ADME, organism-based; settings: in vivo, read-out: Vdss

With `CCc1nc2cc(Cl)ccn2c1C(=O)NCc1ccc(N(C)c2ccc(OC(F)(F)F)cc2)cc1` the MIC80 [1] was 0.04 µM (≈ 0.0201 µg/mL) and the MIC80 [2] was 0.023 µM (≈ 0.0116 µg/mL).
For `CCc1nc2ccc(Cl)cn2c1C(=O)NCc1ccc(N2CCC(Oc3ccc(OC(F)(F)F)cc3)CC2)cc1`, the MIC80 [1] was 0.007 µM (≈ 0.00401 µg/mL).
Work on `CCc1nc2ccc(Cl)cn2c1C(=O)NCc1ccc(N2CCC(Oc3ccc(Cl)cc3)CC2)cc1` yielded a clearance [3] of 2.83 mL/min/kg, a half-life [4] of 14.1 h and a bioavailability [5] of 51.4%. The Cmax [6] was 3540 ng/mL, the AUC(0-inf) [7] was 30300 ng·h/mL and the MIC80 [1] was 0.003 µM (≈ 0.00157 µg/mL). The half-life [8] was 18.9 h, the Tmax [9] was 2 h and the Vd [10] was 1.34 L/kg. For the same compound, the MIC80 [2] was < 0.001 µM.
In the case of `CCc1nc2cc(Cl)ccn2c1C(=O)NCc1ccc(OCc2ccc(F)cc2)cc1`, the MIC80 [1] was 0.02 µM (≈ 0.00876 µg/mL).
Compound `CCc1nc2ccc(Cl)cn2c1C(=O)NCc1ccc(N2CCN(C(=O)c3ccc(F)cc3)CC2)cc1` has an MIC80 [1] of 0.534 µM (≈ 0.278 µg/mL).
`CCc1nc2ccc(Cl)cn2c1C(=O)NCc1ccc(N2CCC(Oc3ccc(Cl)cc3)C2)cc1` (single isomer, unassigned; 41) gave an MIC80 [1] of 0.014 µM (≈ 0.00713 µg/mL).
`CCc1nc2cc(Cl)ccn2c1C(=O)NCc1ccc(NCc2ccc(OC(F)(F)F)cc2)cc1` gave an MIC80 [1] of 0.25 µM (≈ 0.126 µg/mL).
Compound `CCc1nc2ccc(Cl)cn2c1C(=O)NCc1ccc(OCc2ccc(OC(F)(F)F)cc2)cc1` has an MIC80 [1] of 0.015 µM (≈ 0.00756 µg/mL).
With `CCc1nc2ccc(Br)cn2c1C(=O)NCc1ccc(OCc2ccc(OC(F)(F)F)cc2)cc1` the MIC80 [1] was 0.432 µM (≈ 0.237 µg/mL).
Work on `CCc1nc2ccc(Cl)cn2c1C(=O)NCc1ccc(N2CCN(C(=O)Cc3ccc(F)cc3)CC2)cc1` yielded an MIC80 [1] of 0.373 µM (≈ 0.199 µg/mL).
`CCc1nc2ccc(Cl)cn2c1C(=O)NCc1ccc(N2CCC(Oc3ccc(C(F)(F)F)cc3)CC2)cc1` showed a clearance [3] of 2.23 mL/min/kg, a half-life [4] of 19.6 h and a bioavailability [5] of 65.6%. The Cmax [6] was 4100 ng/mL, the AUC(0-inf) [7] was 48900 ng·h/mL and the MIC80 [1] was 0.026 µM (≈ 0.0145 µg/mL). It also gave a half-life [8] of 20 h, a Tmax [9] of 2 h and a Vd [10] of 2.39 L/kg. It also gave an MIC80 [2] of 0.009 µM (≈ 0.00501 µg/mL).
With `CCc1nc2cc(Cl)ccn2c1C(=O)NCc1ccc(Oc2ccc(OC(F)(F)F)cc2)cc1` the MIC80 [1] was 0.064 µM (≈ 0.0314 µg/mL) and the MIC80 [2] was 0.027 µM (≈ 0.0132 µg/mL).
Work on `CCc1nc2cc(Cl)ccn2c1C(=O)NCc1ccc(N2CCC(Cc3ccccc3)CC2)cc1` yielded an MIC80 [1] of 0.022 µM (≈ 0.0107 µg/mL).
Work on `CCc1nc2cc(Cl)ccn2c1C(=O)NCc1ccc(N2CCC(Oc3ccc(OC(F)(F)F)cc3)CC2)cc1` yielded an MIC80 [1] of 0.021 µM (≈ 0.012 µg/mL).
`CCc1nc2ccc(Cl)cn2c1C(=O)NCc1ccc(N2CCC(COc3ccc(OC(F)(F)F)cc3)CC2)cc1` showed an MIC80 [1] of 0.037 µM (≈ 0.0217 µg/mL).
`NNC(=O)c1ccncc1` [ISONIAZID] gave an MIC80 [1] of 0.49 µM (≈ 0.0672 µg/mL) and an MIC80 [2] of 0.2 µM (≈ 0.0274 µg/mL).
Compound `CCc1nc2ccc(Cl)cn2c1C(=O)NCc1ccc(N2CCC(Oc3ccc(Cl)cc3)C2)cc1` (single isomer, unassigned; 40) has an MIC80 [1] of 0.006 µM (≈ 0.00306 µg/mL).
Work on `CCc1nc2cc(Cl)ccn2c1C(=O)NCc1ccc(Nc2ccc(OC(F)(F)F)cc2)cc1` yielded an MIC80 [1] of 0.839 µM (≈ 0.41 µg/mL).
With `CCc1nc2ccc(Cl)cn2c1C(=O)NCc1ccc(N2CCN(Cc3ccc(OC(F)(F)F)cc3)CC2)cc1` the MIC80 [1] was 0.015 µM (≈ 0.00858 µg/mL) and the MIC80 [2] was 0.082 µM (≈ 0.0469 µg/mL).
Compound `CCc1nc2ccc(Cl)cn2c1C(=O)NCc1ccc(N2CCC(Oc3ccc(F)cc3)CC2)cc1` has an MIC80 [1] of 0.01 µM (≈ 0.00507 µg/mL).
`CCc1nc2ccc(F)cn2c1C(=O)NCc1ccc(OCc2ccc(OC(F)(F)F)cc2)cc1` gave a clearance [3] of 4.76 mL/min/kg, a half-life [4] of 11 h and a bioavailability [5] of 80.5%. It also gave a Cmax [6] of 2620 ng/mL, an AUC(0-inf) [7] of 28200 ng·h/mL and an MIC80 [1] of 0.084 µM (≈ 0.0409 µg/mL). For the same compound, the half-life [8] was 11.4 h, the Tmax [9] was 1 h and the Vd [10] was 3.85 L/kg. The MIC80 [2] was 0.028 µM (≈ 0.0136 µg/mL).
With `CCc1nc2ccccn2c1C(=O)NCc1ccc(OCc2ccc(OC(F)(F)F)cc2)cc1` the MIC80 [1] was 0.027 µM (≈ 0.0127 µg/mL).
For `CCc1nc2cc(Cl)ccn2c1C(=O)NCc1ccc(OCc2ccc(OC(F)(F)F)cc2)cc1`, the clearance [3] was 5.77 mL/min/kg, the half-life [4] was 13.9 h and the bioavailability [5] was 53.4%. It also gave a Cmax [6] of 1640 ng/mL, an AUC(0-inf) [7] of 11500 ng·h/mL and an MIC80 [1] of 0.015 µM (≈ 0.00756 µg/mL). For the same compound, the half-life [8] was 11.9 h, the Tmax [9] was 0.5 h and the Vd [10] was 4.68 L/kg. The MIC80 [2] was < 0.001 µM.
